For 23 compounds, EC50 results are on record in patent publication US10087178B2, “Substituted spiropyrido[1,2-a]pyrazine derivative and medicinal use thereof as HIV integrase inhibitor” (priority 2012, dated 2018).

Where a name gives a salt, the structure may show the parent alone.

One assay has as its system HIV-1 NL4-3 strain. Briefly: Evaluation of antiviral activity: acute infection system of MT-4 cell with HIV-1 NL4-3 strain. In kind it is cell-based. Particulars: Human immunodeficiency virus 1, NL43, MT4, 120 h, MT-4 cells infected with HIV-1 NL4-3 strain (MOI 0.05), cultured 5 days, Cell Titer-Glo; read-out: antiviral activity (EC50). (In ATP-based viability assays light output follows the ATP content of the culture.)
Turning to `COC[C@H]1C[C@]2(CN(C)C(=O)c3c(OC(=O)CN(C)C)c(=O)c(C(=O)NCc4cccc(Cl)c4F)cn32)C1` [Example S73, 7′-(3-chloro-2-fluorobenzylcarbamoyl)-cis-3-(methoxymethyl)-2′-methyl-1′,8′-dioxo-1′,2′,3′,8′-tetrahydrospiro[cyclobutane-1,4′-pyrido[1,2-a]pyrazin]-9′-yl 2-(dimethylamino)acetate dihydrochloride], the EC50 – broadly, the concentration needed to bring the measured effect to its halfway point – was 1.1 nM.
As for `CO[C@H]1C[C@@]2(Cn3cc(C(=O)NCc4cccc(Cl)c4F)c(=O)c(O)c3C(=O)N2C)C1` [Example S62, N-(3-chloro-2-fluorobenzyl)-9′-hydroxy-trans-3-methoxy-2′-methyl-1′,8′-dioxo-1′,2′,4′,8′-tetrahydrospiro[cyclobutane-1,3′-pyrido[1,2-a]pyrazine]-7′-carboxamide hydrochloride], the EC50 came out at 4.6 nM.
Still for that read-out and setting: the same measure for `CN1C[C@]2(C[C@@H](O)C2)n2cc(C(=O)NCc3cccc(Cl)c3F)c(=O)c(O)c2C1=O` [Example S26, N-(3-chloro-2-fluorobenzyl)- trans-3,9′-dihydroxy-2′-methyl-1′,8′-dioxo-1′,2′,3′,8′-tetrahydrospiro[cyclobutane-1,4′-pyrido[1,2-a]pyrazine]-7′-carboxamide hydrochloride]: 3.4 nM; for `CC(C)N1C[C@]2(C[C@H](CO)C2)n2cc(C(=O)NCc3ccc(F)cc3F)c(=O)c(O)c2C1=O` [Example S22, N-(2,4-difluorobenzyl)-9′-hydroxy-cis-3-(hydroxymethyl)-2′-isopropyl-1′,8′-dioxo-1′,2′,3′,8′-tetrahydrospiro[cyclobutane-1,4′-pyrido[1,2-a]pyrazine]-7′-carboxamide hydrobromide]: 5 nM; for `CC(=O)NC[C@H]1C[C@]2(CN(C(C)C)C(=O)c3c(O)c(=O)c(C(=O)NCc4ccc(F)cc4F)cn32)C1` [Example S38, cis-3-(acetamidomethyl)-N-(2,4-difluorobenzyl)-9′-hydroxy-2′-isopropyl-1′,8′-dioxo-1′,2′,3′,8′-tetrahydrospiro[cyclobutane-1,4′-pyrido[1,2-a]pyrazine]-7′-carboxamide hydrochloride]: 50 nM.
The same measure, in the same setting: the same measure for `COC[C@H]1C[C@]2(CN(C)C(=O)c3c(OC(=O)C(C)(C)C)c(=O)c(C(=O)NCc4cccc(Cl)c4F)cn32)C1` [Example S71, 7′-(3-chloro-2-fluorobenzylcarbamoyl)-cis-3-(methoxymethyl)-2′-methyl-1′,8′-dioxo-1′,2′,3′,8′-tetrahydrospiro[cyclobutane-1,4′-pyrido[1,2-a]pyrazin]-9′-yl pivalate]: 1.9 nM.
On the same count and under the same terms, the same measure for `CC(C)N1C(=O)c2c(O)c(=O)c(C(=O)NCc3cccc(Cl)c3F)cn2C[C@@]12C[C@@H]2CO` [Example T47, (1S,2S)-N-(3-chloro-2-fluorobenzyl)-9′-hydroxy-2-(hydroxymethyl)-2′-isopropyl-1′,8′-dioxo-1′,2′,4′,8′-tetrahydrospiro[cyclopropane-1,3′-pyrido[1,2-a]pyrazine]-7′-carboxamide]: 4 nM.
On to `CO[C@H]1C[C@]2(CN(C)C(=O)c3c(OC(C)=O)c(=O)c(C(=O)NCc4cccc(Cl)c4F)cn32)C1` [Example S64, 7′-(3-chloro-2-fluorobenzylcarbamoyl)-cis-3-methoxy-2′-methyl-1′,8′-dioxo-1′,2′,3′,8′-tetrahydrospiro[cyclobutane-1,4′-pyrido[1,2-a]pyrazin]-9′-yl acetate], for which the EC50 is 2.8 nM.
Regarding `CCCO[C@H]1C[C@@]2(CN(C)C(=O)c3c(O)c(=O)c(C(=O)NCc4cccc(Cl)c4F)cn32)C1` [Example S42, N-(3-chloro-2-fluorobenzyl)-9′-hydroxy-2′-methyl-1′,8′-dioxo-trans-3-propoxy-1′,2′,3′,8′-tetrahydrospiro[cyclobutane-1,4′-pyrido[1,2-a]pyrazine]-7′-carboxamide hydrochloride], the EC50 is 4.3 nM.
Take `CCCO[C@H]1C[C@]2(CN(C)C(=O)c3c(O)c(=O)c(C(=O)NCc4cccc(Cl)c4F)cn32)C1` [Example S43, N-(3-chloro-2-fluorobenzyl)-9′-hydroxy-2′-methyl-1′-8′-dioxo-cis-3-propoxy-1′,2′,3′,8′-tetrahydrospiro[cyclobutane-1,4′-pyrido[1,2-a]pyrazine]-7′-carboxamide hydrochloride]: the EC50 came out at 4.7 nM.
With `CC(C)N1C(=O)c2c(O)c(=O)c(C(=O)NCc3ccc(F)cc3F)cn2C[C@]12C[C@@H](O)C2` [Example S54, N-(2,4-difluorobenzyl)- trans-3,9′-dihydroxy-2′-isopropyl-1′,8′-dioxo-1′,2′,4′,8′-tetrahydrospiro[cyclobutane-1,3′-pyrido[1,2-a]pyrazine]-7′-carboxamide hydrochloride], the EC50 came out at 27 nM.
On the same count and under the same terms, the figure for `CCN1C(=O)c2c(O)c(=O)c(C(=O)NCc3cccc(Cl)c3F)cn2C[C@]12C[C@H](CO)C2` [Example S60, N-(3-chloro-2-fluorobenzyl)-2′-ethyl-9′-hydroxy-cis-3-(hydroxymethyl)-1′,8′-dioxo-1′,2′,4′,8′-tetrahydrospiro[cyclobutane-1,3′-pyrido[1,2-a]pyrazine]-7′-carboxamide hydrochloride] is 13 nM; for `CCOC[C@H]1C[C@@]12Cn1cc(C(=O)NCc3ccc(F)cc3F)c(=O)c(O)c1C(=O)N2C(C)C` [Example T43, (1S,2S)-N-(2,4-difluorobenzyl)-2-(ethoxymethyl)-9′-hydroxy-2′-isopropyl-1′,8′-dioxo-1′,2′,4′,8′-tetrahydrospiro[cyclopropane-1,3′-pyrido[1,2-a]pyrazine]-7′-carboxamide] it is 5.3 nM.

The assay is the same for the next values; noted with them: Human immunodeficiency virus 1, NL43, MT4, 120 h, antiviral activity; MT-4 cells infected with HIV-1 NL4-3 (MOI 0.05), 5 days culture, Cell Titer-Glo luminescence; read-out: EC50.
`CO[C@H]1C[C@]2(CN(C)C(=O)c3c(O)c(=O)c(C(=O)NCc4ccc(F)cc4F)cn32)C1` [Example S14, N-(2,4-difluorobenzyl)-9′-hydroxy-cis-3-methoxy-2′-methyl-1′,8′-dioxo-1′,2′,3′,8′-tetrahydrospiro[cyclobutane-1,4′-pyrido[1,2-a]pyrazine]-7′-carboxamide hydrochloride]: the EC50 stood at 3.9 nM.
The same measure, in the same setting: the same measure for `COC[C@H]1C[C@]12CN(C(C)C)C(=O)c1c(O)c(=O)c(C(=O)NCc3ccc(F)cc3F)cn12` [Example 14, (1R,2S)—N-(2,4-difluorobenzyl)-9′-hydroxy-2′-isopropyl-2-(methoxymethyl)-1′,8′-dioxo-1′,2′,3′,8′-tetrahydrospiro[cyclopropane-1,4′-pyrido[1,2-a]pyrazine]-7′-carboxamide]: 9.1 nM; for `CCN1C[C@]2(C[C@H](OC)C2)n2cc(C(=O)NCc3ccc(F)cc3F)c(=O)c(O)c2C1=O` [Example S20, N-(2,4-difluorobenzyl)-2′-ethyl-9′-hydroxy-cis-3-methoxy-1′,8′-dioxo-1′,2′,3′,8′-tetrahydrospiro[cyclobutane-1,4′-pyrido[1,2-a]pyrazine]-7′-carboxamide hydrochloride]: 3.5 nM; for `CN1C[C@]2(C[C@@H](O)C2)n2cc(C(=O)NCc3ccc(F)cc3F)c(=O)c(O)c2C1=O` [Example S11, N-(2,4-difluorobenzyl)- trans-3,9′-dihydroxy-2′-methyl-1′,8′-dioxo-1′,2′,3′,8′-tetrahydrospiro[cyclobutane-1,4′-pyrido[1,2-a]pyrazine]-7′-carboxamide hydrobromide]: 25 nM.

Staying with this assay, now noted: Human immunodeficiency virus 1, NL43, MT4, 120 h, read-out: antiviral activity (EC50), MT-4 cells infected with HIV-1 NL4-3 strain (MOI 0.05), cultured 5 days, Cell Titer-Glo.
Consider `CC(C)N1C[C@]2(C[C@H]2CO)n2cc(C(=O)NCc3cccc(Cl)c3F)c(=O)c(O)c2C1=O` [Example T5, (1R,2R)-N-(3-chloro-2-fluorobenzyl)-9′-hydroxy-2-(hydroxymethyl)-2′-isopropyl-1′,8′-dioxo-1′,2′,3′,8′-tetrahydrospiro[cyclopropane-1,4′-pyrido[1,2-a]pyrazine]-7′-carboxamide hydrochloride], for which the EC50 turned out to be 4 nM.
Still for that read-out and setting: the same measure for `CCOC[C@@H]1C[C@]12CN(C)C(=O)c1c(O)c(=O)c(C(=O)NCc3ccc(OC)c(Cl)c3F)cn12` [Example T35, (1R,2R)-N-(3-chloro-2-fluoro-4-methoxybenzyl)-2-(ethoxymethyl)-9′-hydroxy-2′-methyl-1′,8′-dioxo-1′,2′,3′,8′-tetrahydrospiro[cyclopropane-1,4′-pyrido[1,2-a]pyrazine]-7′-carboxamide hydrochloride]: 17 nM; for `CCN1C(=O)c2c(O)c(=O)c(C(=O)NCc3cccc(Cl)c3F)cn2C[C@@]12C[C@@H]2CO` [Example T44, (1S,2S)-N-(3-chloro-2-fluorobenzyl)-2′-ethyl-9′-hydroxy-2-(hydroxymethyl)-1′,8′-dioxo-1′,2′,4′,8′-tetrahydrospiro[cyclopropane-1,3′-pyrido[1,2-a]pyrazine]-7′-carboxamide hydrochloride]: 5.1 nM; for `CCN1C(=O)c2c(O)c(=O)c(C(=O)NCc3ccc(F)cc3F)cn2C[C@@]12C[C@@H]2CO` [Example T39, (1S,2S)-N-(2,4-difluorobenzyl)-2′-ethyl-9′-hydroxy-2-(hydroxymethyl)-1′,8′-dioxo-1′,2′,4′,8′-tetrahydrospiro[cyclopropane-1,3′-pyrido[1,2-a]pyrazine]-7′-carboxamide hydrochloride]: 2.8 nM.
`CCN1C[C@]2(C[C@H]2COC)n2cc(C(=O)NCc3cccc(Cl)c3F)c(=O)c(O)c2C1=O` [Example T20, (1R,2R)-N-(3-chloro-2-fluorobenzyl)-2′-ethyl-9′-hydroxy-2-(methoxymethyl)-1′,8′-dioxo-1′,2′,3′,8′-tetrahydrospiro[cyclopropane-1,4′-pyrido[1,2-a]pyrazine]-7′-carboxamide hydrochloride]: the EC50 was 3.5 nM.

The same assay, now with this note: MT-4 cells infected with HIV-1 NL4-3 strain (MOI 0.05), cultured 5 days, Cell Titer-Glo; hydrobromide; read-out: antiviral activity (EC50).
As to `COC[C@H]1C[C@]2(CN(C)C(=O)c3c(O)c(=O)c(C(=O)NCc4cccc(Cl)c4F)cn32)C1` [Example 31, N-(3-chloro-2-fluorobenzyl)-9′-hydroxy-cis-3-(methoxymethyl)-2′-methyl-1′,8′-dioxo-1′,2′,3′,8′-tetrahydrospiro[cyclobutane-1,4′-pyrido[1,2-a]pyrazine]-7′-carboxamide hydrobromide], the EC50 stood at 1.9 nM.
